# Assay results: PubChem BioAssay (NCI)
#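 A five-concentration, 48-hour dose response in 96-well plates underlies each endpoint, interpolated linearly between surrounding concentrations. Abbreviation: GI50, concentration required for 50% inhibition of growth. Definition used: TGI = concentration required for complete inhibition of growth.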
# How the values were obtained:
# Assay in all cases: growth of human tumour cells (NCI), 48 h
# [1] = tested on: A498 renal
# [2] = tested on: CAKI-1 renal
# [3] = tested on: EKVX NSCLC
# [4] = tested on: K-562 leukemia
# [5] = tested on: MOLT-4 leukemia
# [6] = tested on: NCI-H23 lung
# [7] = tested on: NCI-H460 lung
# [8] = tested on: NCI/ADR-RES ovarian
# [9] = tested on: SF-295 CNS
# [10] = tested on: U251 CNS
Compound,GI50 [1],TGI [1],GI50 [2],TGI [2],GI50 [3],TGI [3],GI50 [4],TGI [4],GI50 [5],TGI [5],GI50 [6],TGI [6],GI50 [7],TGI [7],GI50 [8],TGI [8],GI50 [9],TGI [9],GI50 [10],TGI [10]
O=P(Oc1ccccc1)(Oc1ccccc1)C(O)c1ccccc1 (stereo not given),34.8 µM,> 100 µM,66.5 µM,> 100 µM,26.5 µM,> 100 µM,46.8 µM,> 100 µM,> 100 µM,> 100 µM,> 100 µM,> 100 µM,> 100 µM,> 100 µM,> 100 µM,> 100 µM,29.3 µM,> 100 µM,48.9 µM,> 100 µM
O=C(O)CSCC(=O)c1ccccc1,,> 100 µM,,> 100 µM,,> 100 µM,,> 100 µM,,> 100 µM,,> 100 µM,,> 100 µM,,> 100 µM,,> 100 µM,,> 100 µM
CN(C)CCCNC(=O)c1cc(NC(=O)c2cc(NC(=O)CCCN3c4ccccc4C=Cc4ccccc43)cn2C)cn1C,22.4 µM,53.3 µM,18.5 µM,43.9 µM,17 µM,71.3 µM,2.12 µM,4.97 µM,2.88 µM,> 100 µM,10.6 µM,54.8 µM,5.19 µM,> 100 µM,23.6 µM,59.9 µM,2.07 µM,5.38 µM,,
O=c1oc2ccccc2c(Cl)c1Cl,10.4 µM,22.4 µM,2.69 µM,8.97 µM,11.2 µM,27.1 µM,2.63 µM,> 100 µM,3.37 µM,> 100 µM,5.56 µM,18.9 µM,3.21 µM,12.1 µM,5.85 µM,21.4 µM,11.7 µM,28.4 µM,2.85 µM,8.86 µM
O=C(O)C(Cc1ccccc1-c1ccccc1)C(=O)O,,> 100 µM,,> 100 µM,,> 100 µM,,> 100 µM,,> 100 µM,,> 100 µM,,> 100 µM,,> 100 µM,,> 100 µM,,> 100 µM
O=C(Nc1cccc(NS(=O)(=O)c2ccc(F)cc2)c1)c1ccc(-c2ccccc2)cc1,4.69 µM,25.9 µM,3.74 µM,> 100 µM,2.98 µM,65.3 µM,2.91 µM,24.7 µM,3.05 µM,14.5 µM,2.83 µM,10.5 µM,3.42 µM,14.7 µM,2.75 µM,11.3 µM,2.34 µM,11.8 µM,3.92 µM,19.2 µM
COc1cc(-c2cc(C(=O)Nc3nc4ccccc4s3)nc3cc(-c4ccccc4)nn23)cc(OC)c1OC,9.29 µM,36.7 µM,53.7 µM,> 100 µM,42.9 µM,> 100 µM,25.4 µM,> 100 µM,> 100 µM,> 100 µM,11.5 µM,> 100 µM,29.1 µM,> 100 µM,19.6 µM,> 100 µM,10.6 µM,32.7 µM,5.14 µM,32.6 µM
O=C(O)C1CCCN1Cc1c[nH]c2ccccc12 (stereo not given),,> 100 µM,,> 100 µM,,> 100 µM,,> 100 µM,,> 100 µM,,> 100 µM,,> 100 µM,,> 100 µM,,> 100 µM,,> 100 µM
O=C1CC2(CCCc3sccc32)C(=O)N1 (stereo not given),,> 100 µM,,> 100 µM,,> 100 µM,,> 100 µM,,> 100 µM,,> 100 µM,,> 100 µM,,> 100 µM,,> 100 µM,,> 100 µM
Nc1nc(SCC(=O)O)[nH]c(=O)c1N,,> 100 µM,,> 100 µM,,> 100 µM,,36.9 µM,,> 100 µM,,> 100 µM,,> 100 µM,,> 100 µM,,> 100 µM,,> 100 µM
CC(C)SC1SCC2C(=O)N(C)C3(CC3C)C(=O)OCC(NC(=O)c3nc4ccccc4cc3O)C(=O)NC(C)C(=O)N(C)C1C(=O)N(C)C1(CC1C)C(=O)OCC(NC(=O)c1nc3ccccc3cc1O)C(=O)NC(C)C(=O)N2C (stereo not given),,< 0.0001 µM,,0.00028 µM,,0.0759 µM,,< 0.0001 µM,,< 0.0001 µM,,< 0.0001 µM,,,0.0334 µM,,,0.00809 µM,,< 0.0001 µM
Cc1c(C(=O)N/N=C/c2ccc(O)cc2)nnn1-c1ccnc2c(C(F)(F)F)cccc12,36.6 µM,> 100 µM,> 100 µM,> 100 µM,> 100 µM,> 100 µM,> 100 µM,> 100 µM,> 100 µM,> 100 µM,29.3 µM,> 100 µM,> 100 µM,> 100 µM,> 100 µM,> 100 µM,22 µM,> 100 µM,,
C=C(CN1CCc2ccccc2C1)c1ccc(/C=C/C(=O)Nc2ccccc2N)cc1,16.4 µM,36.8 µM,2.21 µM,94.5 µM,10.4 µM,> 100 µM,5.49 µM,> 100 µM,3.18 µM,> 100 µM,9.55 µM,> 100 µM,3.18 µM,38.1 µM,4.27 µM,> 100 µM,3.09 µM,40.6 µM,3.42 µM,27.8 µM
COc1cccc(-c2nc(-c3ccc(NS(=O)(=O)c4ccccc4)cc3)[nH]c2-c2ccnc(Br)c2)c1,1.25 µM,5.03 µM,1.75 µM,5.63 µM,2.25 µM,9.06 µM,2.6 µM,> 100 µM,2.74 µM,> 100 µM,3.06 µM,17.2 µM,2.85 µM,8.71 µM,3.44 µM,> 100 µM,1.85 µM,4.35 µM,2.73 µM,> 100 µM
CCOC(=O)Oc1c(OC)cc(C(=O)c2ccc(OC)c(OC(=O)CCl)c2OC)cc1OC,3 µM,16.6 µM,3.76 µM,> 100 µM,3.63 µM,> 100 µM,0.457 µM,> 100 µM,0.994 µM,> 100 µM,3.86 µM,> 100 µM,2.09 µM,44.9 µM,0.497 µM,3.98 µM,0.886 µM,33.7 µM,0.926 µM,> 100 µM
